Reference: patent publication US20210155814A1, “ACTIVE-ENERGY-RAY-CURABLE AQUEOUS COMPOSITION, ACTIVE-ENERGY-RAY-CURABLE AQUEOUS INK, STORED CONTAINER, IMAGE FORMING APPARATUS, IMAGE FORMING METHOD, CURED PRODUCT, AND DECORATED PRODUCT” (priority 2019, published 2021)

Key:
Female mice = experiment: Skin sensitization test by local lymph node assay (LLNA) method, SI value of materials; format: in vivo; conditions: for SI (stimulation index, LLNA): test substance 50.0 w/v % in acetone:olive oil 4:1, 25 microliters per auricle, once a day for three days, BrdU intake by ELISA
Description: The present disclosure can provide an active-energy-ray-curable aqueous composition excellent in scratch resistance and storage stability and safe in skin sensitizing potential. Safety in skin sensitizing potential means that a SI value, which is a degree of sensitizing potential, is 3 or lower in a skin sensitization test by the LLNA method.
The “LLNA method” mentioned above is a skin sensitization test stipulated in OECD (Organisation for Economic Co-operation and Development) Test Guidelines. As described in literatures (e.g., “Functional Material”, September 2005 issue, Vol. 25, No. 9, p. 55), LLNA method judges that a stimulation index (SI value) of 3 or lower as a degree of skin sensitizing potential is non-problematic in terms of skin sensitizing potential.
The SI value was measured in the manner described below by a skin sensitization test according to a local lymph node assay (LLNA) method.
As the positive control substance, α-hexyl cinnamaldehyde (HCA, obtained from Wako Pure Chemical Industries, Ltd.) was used.
As the medium, a mixture liquid containing acetone (obtained from Wako Pure Chemical Industries, Ltd.) and olive oil (obtained from Fudimi Pharmaceutical Co., Ltd.) in a volume ratio of 4:1 (acetone:olive oil) was used.
Female mice were acclimated to the test substance, the positive control, and the medium control for 8 days including 6-day quarantine. No abnormalities were found in all of the animals during the quarantine/acclimation period.
Based on the body weights measured 2 days before the initiation of sensitization, the animals were separated into […] (4 mice/group) by the body weight stratified random sampling method in a manner that the body weight of each individual was within ±20% of the average body weight of all individuals. Each of the animals was 8 weeks old to 9 weeks old at the time of the initiation of sensitization.
The test substance was weighed out in a volumetric flask, and the volume of the test substance was adjusted to 1 mL with addition of the medium. The prepared liquid was poured into a light-blocked airtight container (formed of glass).
HCA was accurately weighed out in an amount of about 0.25 g, and adjusted to 1 mL with addition of the medium, to prepare a 25.0 w/v % liquid. The prepared liquid was poured into a light-blocked airtight container (formed of glass).
5-Bromo-2′-deoxyuridine (BrdU, obtained from Nacalai Tesque, Inc.) (200 mg) was accurately weighed out in a volumetric flask, and dissolved in saline (obtained from Otsuka Pharmaceutical Co., Ltd.) added in the flask by ultrasonic irradiation. Subsequently, the resultant was adjusted to a volume of 20 mL, to prepare a 10 mg/mL liquid (BrdU preparation liquid). The prepared liquid was sterilized by filtration through a sterilized filtration filter and poured into a sterilized container.
The preparation liquids of each test substance and the positive control substance, and the medium were each applied to both auricles of the animals by 25 microliters each. A micropipetter was used for the application. This treatment was performed once a day for three consecutive days.
About 48 hours after the final sensitization, the BrdU preparation liquid was intraperitoneally administered once by 0.5 mL per animal.
About 24 hours after the BrdU administration, the animals were subjected to euthanasia, and their auricular lymph nodes were removed. Surrounding tissues of the auricular lymph nodes were removed, and the auricular lymph nodes on both sides were collectively weighted. The average and the standard error of the weights of the auricular lymph nodes were calculated per group. After the mass measurement, the auricular lymph nodes were cryopreserved per individual in a biomedical freezer set to −20 degrees C.
After the auricular lymph nodes were returned to room temperature, the auricular lymph nodes were ground with addition of saline and suspended in the saline. […]

[1] = Oral toxicity according to OECD test guideline TG423; format: in vivo
Method: (§1) As a safety test, AMES test was performed according to OECD test guideline TG471 (±S9 mix), and the result was negative. Oral toxicity was tested according to OECD test guideline TG423. […] Skin stimulation was tested according to OECD test guideline TG404, and the result was PII=0.5. Skin sensitizing potential was tested according to OECD test guideline TG442B.

[2] = format: cell-based; conditions: OECD TG471, ±S9 mix
Method: as §1

[3] = format: in vivo; conditions: OECD TG404
Method: as §1

Row | SMILES | SI (stimulation index, LLNA) (Female mice) | also measured
1 | C=CC(=O)N(C)C(C)C(=O)OC (stereo not drawn) [Example A1-4, N-acryloyl-N-methylalaninemethyl ester] | (see Synthesis example 4) SI = 1.12 | 
2 | C=C(C)C(=O)OCC(COC(=O)C(=C)C)OC(C)=O [Example B1-6, 2-acetyl-1,3-glycerol dimethacrylate] | (see Synthesis example 8) SI = 1.40 | 
3 | C=CC(=O)NCCN(CCN(CCNC(=O)C=C)C(=O)C=C)C(=O)C=C [Example B2-11] | FUJIFILM Corporation, FOM-03009, SI = 1.52 | 
4 | C=C(C)C(=O)OCC(CC)(COC(=O)C(=C)C)COC(=O)C(=C)C [Example B1-3] | Shin-Nakamura Chemical Co., Ltd., “TMPT”, SI = 1.03 | 
5 | C=CC(=O)NCCCOCCOCCOCCCNC(=O)C=C [Example B2-10] | FUJIFILM Corporation, FOM-03008, SI = 1.24 | 
6 | C=CC(=O)N(C)CCOC(C)=O [Example A1-8, N-(2-Acetyloxyethyl)-N-methyl acrylamide] | (see Synthesis example 13) SI = 1.10 | 
7 | C=CC(=O)N(C)CCCCCCN(C)C(=O)C=C [Example B2-4] | (see Synthesis example 12) SI = 1.58 | 
8 | C=CC(=O)N(C)CC(=O)OCC [Example A1-2, N-acryloyl-N-methylglycineethyl ester] | (see Synthesis example 2) SI = 1.02 | 
9 | C=CC(=O)N(CC)CCN(CC)C(=O)C=C [Example B2-2] | (see Synthesis example 10) SI = 1.33 | 
10 | C=C(C)C(=O)OCCOCCOC(=O)C(=C)C [Example B1-1] | Shin-Nakamura Chemical Co., Ltd., “2G”, SI = 1.05 | 
11 | C=CC(=O)NCNC(=O)C=C [Example B2-5] | Tokyo Chemical Industry Co., Ltd., (product No. M2877), SI = 1.08 | 
12 | C=CC(=O)OC1CC2CCC1(C)C2(C)C (stereo not drawn) [Example A2-2, Isobornyl acrylate, reference compound] | Osaka Organic Chemical Industry Ltd., “Isobornyl acrylate”, SI = 8.30 | 
13 | C=C(C)C(=O)OCCO [Example A2-1, 2-hydroxyethyl methacrylate, reference compound] | Tokyo Chemical Industry Co., Ltd., “2-hydroxyethyl methacrylate” SI = 1.26 | 
14 | C=CC(=O)N(C)CC(=O)OC [Example A1-1, N-acryloyl-N-methylglycinemethyl ester] | (see Synthesis example 1) SI = 1.00 | Fatal cases in oral toxicity test ([1]; OECD TG423): none of six cases was a fatal case; LD50 ([1]; in vivo, 2000 mg/kg, OECD TG423, oral): ≥ 2000 mg/kg; AMES test result [2]: negative; SI value (skin sensitizing potential) (Female mice; OECD test guideline TG442B): 1.00; PII (skin stimulation) [3]: 0.5
15 | C=CC(=O)NCCNC(=O)C=C [Example B2-6] | Tokyo Chemical Industry Co., Ltd., (product No. E1086), SI = 1.23 | 
16 | C=CC(=O)NC(O)C(O)NC(=O)C=C (stereo not drawn) [Example B2-7] | Tokyo Chemical Industry Co., Ltd., (product No. D2864), SI = 1.01 | 
17 | C=CC(=O)NCCN(CCNC(=O)C=C)C(=O)C=C [Example B2-9] | FUJIFILM Corporation, FOM-03007, SI = 1.44 | 
18 | C=CC(=O)N1CCC(C(=O)OCC)CC1 [Example A1-7, ethyl N-acryloylpiperidine-4-carboxylate] | (see Synthesis example 7) SI = 1.70 | 
19 | C=CC(=O)N(C)CCN(C)C(=O)C=C [Example B2-1] | (see Synthesis example 9) SI = 1.20 | 
